Results as given in US20230392115A1, “METHODS FOR MAKING AND USING DIFFERENTIATED NEURAL CELLS” (Research Development Foundation, priority 2020, published 2023).

Legend:
HS420 cells [1] = assay: Q-RT-PCR of regionalization markers (Otx-2, Lmxla, FoxA2, FoxG1, Msx-1) at day 8; assay type: cell-based, human; conditions: 0.2 uM, day 8, normalized to vehicle
Experimental: FIG. 6: HS420 cells were exposed for 8 days to dual SMAD inhibition or ALK inhibitors at the concentration of 0.2 μM. Regionalization markers were measured by Q-RT-PCR and normalized with control conditions (no compounds, vehicle alone).
(§1) Quantitative PCR was performed with Tecan Freedom Evo by using SYBR green fluorescence. cDNA was produced from RNA by using the prime script RT reagent kit (Takara). All primers were diluted at a concentration of 0.86 μM, and a master mix was used (Power SYBR Green Master Mix, Thermo Fisher Scientific).
A possible impact of ALK inhibitors on early neural specification was analysed after 8 days of differentiation and compared with dual SMAD inhibition. Several markers of early specification, focusing on forebrain/midbrain regionalization were measured by Q-RT-PCR at day 8 in neural induction medium. The following markers were tested: Otx-2 which is an anterior marker (forebrain and midbrain), Lmxla which is expressed in dorsal and ventral midbrain, FoxA2 which is a ventral marker in forebrain, midbrain and hindbrain. Was also tested the forebrain FoxG1 and Msx-1 which is more specific for early dopaminergic differentiation. Several experiments were performed (n=3) and values were normalized as the percentage of control (=no compound, vehicle lone). At this early stage (day 8), FoxA2 and Msx-1 were not detected by PCR in all conditions, showing the absence of acquisition of a ventral and dopaminergic identity. […] The Hindbrain marker HoxA2 was not detected at this stage (not shown), showing the absence of a hindbrain identity (not shown). […] DMH1 and DMH2 reduce the forebrain identity, a useful prerequisite for dopaminergic specification.

HS420 cells [2] = assay: Neuronal maturation after passage (nestin-, βIII-tubulin+ cells); assay type: cell-based, human; conditions: cells previously exposed to ALKi 0.2 μM, passaged at day 8, maturation
Experimental: FIG. 7: Neuronal maturation f HS420 cells (one month) exposed to ALKi versus dualSMAD inhibition.
(§2) For neural differentiation, HS420 cells at 50% of confluency were passaged in new laminin 521-coated tissue culture plates at the density of 10000 cells/cm^2 in Stemflex medium supplemented with ROCK inhibitor (Y27632, abcam) at 10 μM. After 24 h, cells were submitted to a medium change, the Stemflex being replaced by the following neural induction medium: Neurobasal (Thermofisher) supplemented with penicillin/streptomycin 100 U/ml (Invitrogen), B-27 supplement (Thermofisher), L-glutamine 2 mM (Thermofisher). Cells were passaged at day 8 and subsequent confluency (every weeks), by the use of Accutase (Thermofisher) and replated on polyornithine/Matrigel (Sigma)-coated tissue culture flasks at the density of 50 000/cm^2. • 3. Immunocytochemistry
At confluency (occurring in these conditions at day 8), cells were passaged at a very low density with Accutase and polyornithine/Matrigel-coated dished for neuronal maturation in appropriated medium. Neuronal cells (nestin− and βIII-tubulin+ cells with a neuritic morphology) were present in cells previously exposed to the four compounds, in contrast to control conditions from which cells reduced progressively their number, with only few neuronal cells in the plate (FIG. 7).

[3] = system: human embryonic stem cell line HS420; assay: Morphology of embryonic stem cells after one week of exposure in neural induction medium; assay type: cell-based; conditions: 0.2 μM; for morphological modifications of embryonic stem cells: vs control (DMSO)
Experimental: as §2
(§3) To study the effects of ML347, DMH1, DMH2, K02288 and A8301 on PSC, the human embryonic stem cell line HS420 was used. Cells were plated at a low density on laminin 521 (10000/cm^2) in their maintenance medium (Stemflex) and exposed 24 h later to ML347, DMH1 or DMH2 or K02288 or A8301, during one week, at the concentration of 0.2 μM in a minimal medium suited for early neural induction. Once confluent (after 8 days), cells were passaged and plated in the same medium, without neural inductors, at the density of 50000/cm^2 polyornithine/Matrigel—coated tissue culture flasks for maturation (FIG. 2).

[4] = ATP-based cytotoxicity assay (Cmax allowing 100% viability); conditions: human, human embryonic pluripotent stem cell line HS420; HS420 cells; ATP quantification assay; read-out: Cmax (in vitro concentration allowing 100% of survival)
Source text: Multiple combinations between Noggin, LDN193189 and SB431542 are commonly used and generally called “dualSMAD inhibition”. It represents to date the most widely used way to induce early neural specification of PSC in vitro. Described herein is the report of a differentiation approach that excludes “dual Smad inhibition,” and instead achieves differentiation through the use of 5 chemicals inhibiting ALK to induce neural specification of pluripotent stem cells in vitro: ML347, DMH1, DMH2, K02288 and A8301 (Table 1). Table 1 indicates their name, PubChem ID and toxicity on the human embryonic Pluripotent Stem Cell line (ePSC) HS420, by using an ATP-based cytotoxicity assay. The Cmax was defined as the maximal concentration in vitro allowing 100% of viability of cells.

[5] = system: human embryonic stem cell line HS420; assay: Immunofluorescent staining for nestin, Pax-6, Sox-1 at day 8; assay type: cell-based; conditions: 0.2 μM
Experimental: Cells on glass coverslips were fixed with 1 mL of 0.5% paraformaldehyde in PBS for 30 minutes at room temperature. Cells were then washed three times with 1 mL of PBS and incubated overnight with primary antibodies in PBS containing 0.1% Triton X-100 (Sigma), and 1% bovine serumalbumine (Sigma). Cells were washed three times with 1 mL of PBS before incubation for 1 h30 min with the secondary antibody in PBS containing 0.1% Triton X-100 and 1% bovine serumalbumine. Cells were washed three times with PBS before exposure to DAPI 300 nM in PBS (Sigma) for 15 minutes at room temperature. After three washes in PBS, cells were rinsed with water and mounted in glass slides using Fluorsave reagent (Merck Millipore). • 4. Quantitative RT PCR
as §3, with “2). […]” for “2).”

[6] = system: human embryonic stem cell line HS420; assay: Q-RT-PCR of neuroectodermal markers (Pax-6, Sox-1, nestin) at day 8; assay type: cell-based
Experimental: FIG. 5: Quantification of neuroectodermal markers following exposition of HS420 cells one week with ALKi or dualSMAD inhibition. Results are expressed as the percentage of control condition (DMSO) in three independent experiments. The bars in each bar graph represent, from left to right, data from DMH-1, DMH-2, K02288, A8301, and LDN+SB.
as §1
Q-RT-PCR experiments were performed to provide a quantitative description of neural-inducing effects of the 4 compounds (in three independent experiments).

Row | Molecule | FoxG1 expression (forebrain specification) (HS420 cells [1]) | neural induction with generation of cells able to mature into neurons (HS420 cells [2]) | morphological modifications of embryonic stem cells [3] | Cmax [4] [nM] | also measured
1 | Cc1cccc(-c2nn(C(=S)Nc3ccccc3)cc2-c2ccnc3ccccc23)n1 [A8301, 3-(6-Methylpyridin-2-yl)-N-phenyl-4-(quinolin-4-yl)-1H-pyrazole-1-carbothioamide] | upregulation of FoxG1 | favoured neural induction with the generation of cells able to be further maturated into neurons | showed morphological modifications | 5180 ± 1780 | epithelial-like cells spreading between the colonies [3]: invaded as a monolayer the free tissue culture plate between the colonies; expression of nestin, Pax-6 and Sox-1 by immunofluorescent staining [5]: homogeneously expressed nestin, Pax-6 and Sox-1
2 | CC(C)Oc1ccc(-c2cnc3c(-c4ccnc5ccccc45)cnn3c2)cc1 [DMH1, 4-[6-(4-Propan-2-yloxyphenyl)pyrazolo[1,5-a]pyrimidin-3-yl]quinoline] | reduced FoxG1 expression | favoured neural induction with the generation of cells able to be further maturated into neurons | showed morphological modifications | 970 ± 460 | 
3 | c1ccc2c(-c3cnn4cc(-c5ccc(OCCN6CCOCC6)cc5)cnc34)ccnc2c1 [DMH2, 4-(2-(4-(3-(Quinolin-4-yl)pyrazolo[1,5-a]pyrimidin-6-yl)phenoxy)ethyl)morpholine] | reduced FoxG1 expression | favoured neural induction with the generation of cells able to be further maturated into neurons | showed morphological modifications | 580 ± 200 | 
4 | COc1cc(-c2cc(-c3cccc(O)c3)cnc2N)cc(OC)c1OC [K02288, 3-[6-Amino-5-(3,4,5-Trimethoxyphenyl)pyridin-3-Yl]phenol] |  | favoured neural induction with the generation of cells able to be further maturated into neurons | showed morphological modifications | 530 ± 250 | epithelial-like cells spreading between the colonies [3]: invaded as a monolayer the free tissue culture plate between the colonies; expression of nestin, Pax-6 and Sox-1 by immunofluorescent staining [5]: homogeneously expressed nestin, Pax-6 and Sox-1
5 | c1ccc2c(-c3cnn4cc(-c5ccc(N6CCNCC6)cc5)cnc34)ccnc2c1 [LDN193189] |  |  |  |  | expression of Pax-6, Sox-1 and nestin mRNAs compared to control ([6]; 0.5 μM): increased the expression of Pax-6, Sox-1 and nestin mRNAs
6 | COc1ccc(-c2cnc3c(-c4cccc5ncccc45)cnn3c2)cc1 [ML347, 5-[6-(4 Methoxyphenyl)pyrazolo[1,5-a]pyrimidin-3-yl]quinoline] |  |  |  | 580 ± 200 | 
7 | NC(=O)c1ccc(-c2nc(-c3ccc4c(c3)OCO4)c(-c3ccccn3)[nH]2)cc1 [SB431542, 4-(4-(Benzo[d][1,3]dioxol-5-yl)-5-(pyridin-2-yl)-1H-imidazol-2-yl)benzamide] |  |  |  |  | Sox-1 mRNA ([6]; alone at 10 μM): moderate increase; expression of the three markers (Pax-6, Sox-1, nestin mRNAs) ([6]; alone at 10 μM): did not increase the three markers
8 | Noggin: Noggin protein, BMP inhibitor, provided by Miltenyi Biotec (ref 130-103-456) (protein, UniProt Q13253 28-232, looked up) Noggin: QHYLHIRPAPSDNLPLVDLIEHPDPIFDPKEKDLNETLLRSLLGGHYDPGFMATSPPEDRPGGGGGAAGGAEDLAELDQLLRQRPSGAMPSEIKGLEFSEGLAQGKKQRLSKKLRRKLQMWLWSQTFCPVLYAWNDLGSRFWPRYVKVGSCFSKRSCSVPEGMVCKPSKSVHLTVLRWRCQRRGGQRCGWIPIQYPIISECKCSC |  |  |  |  | effect on neuroectodermal marker mRNAs ([6]; alone at 100 ng/ml): moderate effect
